# Source: patent US20250163104A1, “MACROCYCLIC IMMUNOMODULATORS” (priority 2021, published 2025)
# Where a SMILES comes first, the peptide text is derived from it. Bridges are numbered along the chain shown (N, C = ends). [ ]: non-standard residue; d: D form. The star is where a group is joined. ξ: configuration not given here. Phe(4-COOH) = N[C@@H](Cc1ccc(C(=O)O)cc1)C(=O)O; Bip = N[C@@H](Cc1ccc(-c2ccccc2)cc1)C(=O)O; Phe(3-Me) = Cc1cccc(C[C@H](N)C(=O)O)c1; Val(3-OH) = CC(C)(O)[C@H](N)C(=O)O; aIle = CC[C@@H](C)[C@H](N)C(=O)O; 4Pal = N[C@@H](Cc1ccncc1)C(=O)O; Cha = N[C@@H](CC1CCCCC1)C(=O)O; Ile(3ξ) = CCC(C)[C@H](N)C(=O)O; dCha = N[C@H](CC1CCCCC1)C(=O)O; Thr(3ξ) = CC(O)[C@H](N)C(=O)O; dDab = NCC[C@@H](N)C(=O)O; Carboxymethyl = O=C(O)C*; Nle = CCCC[C@H](N)C(=O)O; Orn = NCCC[C@H](N)C(=O)O; Dab = NCC[C@H](N)C(=O)O; Dap = NC[C@H](N)C(=O)O; Ac3c = NC1(C(=O)O)CC1; Piv = CC(C)(C)C(=O)*
# Biological target: T1, human PD-1 / PD-L1-Ig binding on Jurkat cell line over-expressing human PD-1 (Jurkat-PD-1) (Homo sapiens, UniProt Q15116)
# T1 construct: expressed in transfected cells; host or cells: Jurkat
# Assay: Jurkat-PD-1 Cell Binding High-Content Screening Assay (CBA)
# Assay type: cell-based
# Details: Jurkat HPD1_PDL1 IC50, Jurkat-PD-1 cells, PE-labeled PD-L1-Ig 20 nM final
# Procedure, shortened: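 Cell-bound PE-labeled PD-L1-Ig (20 nM final, 1 h) measured by high-content imaging after fixation and Hoechst 33342 counterstain. Compound was applied first for 2 h at 37° C. to Jurkat cells over-expressing human PD-1 in DMEM with 10% FCS.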
# T1 sequence (Q15116 25-288): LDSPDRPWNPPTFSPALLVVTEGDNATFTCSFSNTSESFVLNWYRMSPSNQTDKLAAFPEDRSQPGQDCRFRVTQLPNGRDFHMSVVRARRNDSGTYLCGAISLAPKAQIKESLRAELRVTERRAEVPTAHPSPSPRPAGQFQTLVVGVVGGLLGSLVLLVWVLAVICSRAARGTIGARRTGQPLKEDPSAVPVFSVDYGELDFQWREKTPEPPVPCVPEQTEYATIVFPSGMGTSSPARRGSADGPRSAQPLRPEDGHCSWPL
row,Structure (SMILES),IC50
1,CC[C@H](C)[C@@H]1NC(=O)[C@H](Cc2ccc(-c3ccccc3)cc2)NC(=O)[C@H](C(C)C)NC(=O)[C@H](Cc2c[nH]c3ccccc23)NC(=O)[C@H](CC(=O)O)NC(=O)[C@H](Cc2ccncc2)NC(=O)[C@H](Cc2ccc(OCC(=O)O)cc2)NC(=O)CSC[C@@H](C(=O)N[C@@H](C)C(N)=O)NC(=O)[C@H]([C@@H](C)O)NC(=O)[C@H](C(C)C)NC(=O)[C@H](CC2CCCCC2)NC(=O)[C@H](Cc2c[nH]cn2)NC(=O)[C@@H](CC(C)C)NC(=O)[C@H](CCCN)NC1=O [Compound 1604],0.0458 µM
2,CC(C)C[C@H]1NC(=O)[C@H](CCCN)NC(=O)[C@H](C(C)C)NC(=O)[C@H](Cc2ccc(-c3ccccc3)cc2)NC(=O)[C@H](C(C)C)NC(=O)[C@H](Cc2c[nH]c3ccccc23)NC(=O)[C@H](CC(=O)O)NC(=O)[C@H](Cc2ccc(C(=O)O)cc2)NC(=O)[C@H](Cc2ccc(OCC(=O)O)cc2)NC(=O)CSC[C@@H](C(=O)N[C@@H](CCN)C(=O)N[C@@H](CCCNC(=N)N)C(=O)O)NC(=O)[C@H](CO)NC(=O)[C@H](C(C)C)NC(=O)[C@H](CC2CCCCC2)NC(=O)[C@H](CCN)NC1=O [Compound 2586] ({CH2CO}-Y(Carboxymethyl)[Phe(4-COOH)]DWV[Bip]V[Orn][dL][Dab][Cha]VSC[Dab]R-OH; thioether N-14),0.01 µM

# Same assay, conditions: Jurkat-PD-1 cells, PE-labeled PD-L1-Ig 20 nM final; read-out: Jurkat HPD1_PDL1 IC50
row,Structure (SMILES),IC50
1,CC[C@H](C)[C@@H]1NC(=O)[C@H](Cc2ccc(-c3ccccc3)cc2)NC(=O)[C@H](C(C)C)NC(=O)[C@H](Cc2cccc(C)c2)NC(=O)[C@H](CC(=O)O)NC(=O)[C@H](Cc2ccc(C(=O)O)cc2)NC(=O)[C@H](CN)NC(=O)CSC[C@@H](C(=O)N[C@@H](C)C(N)=O)NC(=O)[C@H]([C@@H](C)O)NC(=O)[C@H](C(C)C)NC(=O)[C@H](CC2CCCCC2)NC(=O)[C@H](CCN)NC(=O)[C@@H](CC(C)C)NC(=O)[C@H](CCCN)NC1=O [Compound 1204],0.0057 µM
2,CC(C)C[C@@H]1NC(=O)[C@H](Cc2c[nH]c3ccccc23)NC(=O)[C@H](CC(=O)O)NC(=O)[C@H](Cc2ccc(OCC(=O)O)cc2)NC(=O)[C@H](Cc2ccc(OCC(=O)O)cc2)NC(=O)CSC[C@@H](C(=O)NCC(N)=O)NC(=O)[C@H](CO)NC(=O)[C@H](C(C)C)NC(=O)[C@H](CC(C)C)NC(=O)[C@H](CC(N)=O)NC(=O)[C@@H](CC(C)C)NC(=O)[C@H](CN)NC(=O)[C@H](C(C)C)NC(=O)[C@H](Cc2ccc(-c3ccccc3)cc2)NC1=O [Compound 1291] ({CH2CO}-Y(Carboxymethyl)Y(Carboxymethyl)DWL[Bip]V[Dap][dL]NLVSCG-NH2; thioether N-14),0.0121 µM
3,CC(C)C[C@@H]1NC(=O)[C@H](CCN)NC(=O)[C@@H](CC(C)C)NC(=O)[C@H](CCCN)NC(=O)[C@H](C(C)C)NC(=O)[C@H](Cc2ccc(-c3ccccc3)cc2)NC(=O)[C@H](C(C)C)NC(=O)[C@H](Cc2c[nH]c3ccccc23)NC(=O)[C@H](CC(=O)O)NC(=O)[C@H](Cc2ccc(OCC(=O)O)cc2)NC(=O)[C@H](CN)NC(=O)CSC[C@@H](C(=O)N[C@@H](C)C(N)=O)NC(=O)[C@H]([C@@H](C)O)NC(=O)[C@H](C(C)C)NC1=O [Compound 1048] ({CH2CO}-[Dap]Y(Carboxymethyl)DWV[Bip]V[Orn][dL][Dab]LVTCA-NH2; thioether N-14),0.0137 µM
4,CC[C@@H](C)[C@@H]1NC(=O)[C@H](Cc2ccc(-c3ccccc3)cc2)NC(=O)[C@H](C(C)C)NC(=O)[C@H](Cc2c[nH]c3ccccc23)NC(=O)[C@H](CC(=O)O)NC(=O)[C@H](Cc2ccc(O)cc2)NC(=O)[C@H](CC(N)=O)NC(=O)CSC[C@@H](C(=O)N[C@@H](C)C(N)=O)NC(=O)[C@H]([C@@H](C)O)NC(=O)[C@H](C(C)C)NC(=O)[C@H](CC2CCCCC2)NC(=O)[C@H](CCN)NC(=O)[C@@H](CC2CCCCC2)NC(=O)[C@H](CCCN)NC1=O [Compound 1631] ({CH2CO}-NYDWV[Bip][aIle][Orn][dCha][Dab][Cha]VTCA-NH2; thioether N-14),0.0441 µM
5,CCCC[C@@H]1NC(=O)[C@H](CCN)NC(=O)[C@@H](CC(C)C)NC(=O)[C@H](CCCN)NC(=O)[C@H](C(C)C)NC(=O)[C@H](Cc2ccc(-c3ccccc3)cc2)NC(=O)[C@H](CC(C)C)NC(=O)[C@H](Cc2c[nH]c3ccccc23)NC(=O)[C@H](CC(=O)O)NC(=O)[C@H](Cc2ccc(OCC(=O)O)cc2)NC(=O)[C@H](Cc2ccncc2)NC(=O)CSC[C@@H](C(=O)NCC(N)=O)NC(=O)[C@H](CO)NC(=O)[C@H](C(C)C)NC1=O [Compound 1407] ({CH2CO}-[4Pal]Y(Carboxymethyl)DWL[Bip]V[Orn][dL][Dab][Nle]VSCG-NH2; thioether N-14),0.0079 µM

# Continued, values first:
row,IC50,Structure (SMILES)
1,0.0055 µM,Cc1cccc(C[C@@H]2NC(=O)[C@H](CC(=O)O)NC(=O)[C@H](Cc3ccc(OCC(=O)O)cc3)NC(=O)[C@H](CN)NC(=O)CSC[C@@H](C(=O)N[C@@H](C)C(N)=O)NC(=O)[C@H](CCCNC(=N)N)NC(=O)[C@H](C(C)C)NC(=O)[C@H](CC3CCCCC3)NC(=O)[C@H](CCN)NC(=O)[C@@H](CC(C)C)NC(=O)[C@H](CCCN)NC(=O)[C@H](C(C)C)NC(=O)[C@H](Cc3ccc(-c4ccccc4)cc3)NC(=O)[C@H](C(C)C)NC2=O)c1 [Compound 1756] ({CH2CO}-[Dap]Y(Carboxymethyl)D[Phe(3-Me)]V[Bip]V[Orn][dL][Dab][Cha]VRCA-NH2; thioether N-14)
2,0.111 µM,Cc1cccc(C[C@@H]2NC(=O)[C@H](CC(=O)O)NC(=O)[C@H](Cc3ccc(OCC(=O)O)cc3)NC(=O)[C@H](Cc3ccncc3)NC(=O)CSC[C@@H](C(=O)N[C@@H](CCN)C(N)=O)NC(=O)[C@H](CO)NC(=O)[C@H](C(C)(C)O)NC(=O)[C@H](CC3CCCCC3)NC(=O)[C@H](CCN)NC(=O)[C@@H](CC(C)C)NC(=O)C3(CC3)NC(=O)[C@H](Cc3ccc(OCC(=O)O)cc3)NC(=O)[C@H](Cc3ccc(-c4ccccc4)cc3)NC(=O)[C@H](Cc3ccc(OCC(=O)O)cc3)NC2=O)c1 [Compound 2082] ({CH2CO}-[4Pal]Y(Carboxymethyl)D[Phe(3-Me)]Y(Carboxymethyl)[Bip]Y(Carboxymethyl)[Ac3c][dL][Dab][Cha][Val(3-OH)]SC[Dab]-NH2; thioether N-14)
3,0.0194 µM,Cc1cccc(C[C@@H]2NC(=O)[C@H](CC(=O)O)NC(=O)[C@H](Cc3ccc(OCC(=O)O)cc3)NC(=O)[C@H](CN)NC(=O)CSC[C@@H](C(=O)N[C@@H](CCN)C(N)=O)NC(=O)[C@H](CCCN)NC(=O)[C@H](C(C)C)NC(=O)[C@H](CC3CCCCC3)NC(=O)[C@H](CCN)NC(=O)[C@@H](CC(C)C)NC(=O)[C@H](CCNC(=O)C(C)(C)C)NC(=O)[C@H](Cc3ccc(O)cc3)NC(=O)[C@H](Cc3ccc(-c4ccccc4)cc3)NC(=O)[C@H](Cc3ccc(O)cc3)NC2=O)c1 [Compound 2038] ({CH2CO}-[Dap]Y(Carboxymethyl)D[Phe(3-Me)]Y[Bip]Y[Dab](Piv)[dL][Dab][Cha]V[Orn]C[Dab]-NH2; thioether N-14)
4,0.0111 µM,CC(C)C[C@H]1NC(=O)[C@H](CCCN)NC(=O)[C@H](C(C)C)NC(=O)[C@H](Cc2ccc(-c3ccccc3)cc2)NC(=O)[C@H](C(C)C)NC(=O)[C@H](Cc2c[nH]c3ccccc23)NC(=O)[C@H](CC(=O)O)NC(=O)[C@H](Cc2ccc(OCC(=O)O)cc2)NC(=O)[C@H](Cc2ccc(OCC(=O)O)cc2)NC(=O)CSC[C@@H](C(=O)N[C@@H](C)C(N)=O)NC(=O)[C@H]([C@@H](C)O)NC(=O)[C@H](C(C)C)NC(=O)[C@H](Cc2ccccc2)NC(=O)[C@H](CCN)NC1=O [Compound 1663] ({CH2CO}-Y(Carboxymethyl)Y(Carboxymethyl)DWV[Bip]V[Orn][dL][Dab]FVTCA-NH2; thioether N-14)
5,0.01 µM,Cc1cccc(C[C@@H]2NC(=O)[C@H](CC(=O)O)NC(=O)[C@H](Cc3ccc(OCC(=O)O)cc3)NC(=O)[C@H](CN)NC(=O)CSC[C@@H](C(=O)N[C@@H](CCN)C(N)=O)NC(=O)[C@H](CCCN)NC(=O)[C@H](C(C)C)NC(=O)[C@H](CC3CCCCC3)NC(=O)[C@H](CCNC(=O)C(C)(C)C)NC(=O)[C@@H](CC(C)C)NC(=O)[C@H](CCCN)NC(=O)[C@H](Cc3ccc(O)cc3)NC(=O)[C@H](Cc3ccc(-c4ccccc4)cc3)NC(=O)[C@H](Cc3ccc(O)cc3)NC2=O)c1 [Compound 2036] ({CH2CO}-[Dap]Y(Carboxymethyl)D[Phe(3-Me)]Y[Bip]Y[Orn][dL][Dab](Piv)[Cha]V[Orn]C[Dab]-NH2; thioether N-14)
6,0.132 µM,CCC(C)[C@@H]1NC(=O)[C@H](Cc2ccc(-c3ccccc3)cc2)NC(=O)[C@H](Cc2ccccc2)NC(=O)[C@H](Cc2c[nH]c3ccccc23)NC(=O)[C@H](CC(=O)O)NC(=O)[C@H](Cc2ccc(OCC(=O)O)cc2)NC(=O)[C@H](C(C)O)NC(=O)CSC[C@@H](C(=O)N[C@@H](CC(N)=O)C(=O)O)NC(=O)[C@H](CO)NC(=O)[C@H](C(C)C)NC(=O)[C@H](CC(C)C)NC(=O)[C@H](CCN)NC(=O)[C@@H](CC(C)C)NC(=O)[C@H](CCCN)NC1=O (stereo partly drawn) [Compound 2574] ({CH2CO}-[Thr(3ξ)]Y(Carboxymethyl)DWF[Bip][Ile(3ξ)][Orn][dL][Dab]LVSCN-OH; thioether N-14)
7,0.0041 µM,Cc1cccc(C[C@@H]2NC(=O)[C@H](CC(=O)O)NC(=O)[C@H](Cc3ccc(C(=O)O)cc3)NC(=O)[C@H](CN)NC(=O)CSC[C@@H](C(=O)N[C@@H](CCN)C(N)=O)NC(=O)[C@@H](CCN)NC(=O)[C@H](C(C)C)NC(=O)[C@H](CC3CCCCC3)NC(=O)[C@H](CCN)NC(=O)[C@@H](CC(C)C)NC(=O)[C@H](CCCN)NC(=O)[C@H](C(C)C)NC(=O)[C@H](Cc3ccc(-c4ccccc4)cc3)NC(=O)[C@H](C(C)C)NC2=O)c1 [Compound 2029] ({CH2CO}-[Dap][Phe(4-COOH)]D[Phe(3-Me)]V[Bip]V[Orn][dL][Dab][Cha]V[dDab]C[Dab]-NH2; thioether N-14)
